Read-outs that look alike come from different tables or passages of the source.
Tests used:
[1] = tested on: HIV (HTLV-IIIB) in H9 cells; assay: Inhibition of human immunodeficiency virus multiplication in cell culture (HIV infection of H9 cells); type: cell-based; conditions: Human immunodeficiency virus 1, 6-7 days, HIV antigen containing cells by immunofluorescence, read-out: Concentration for 50% inhibition (IC50) of human immunodeficiency virus multiplication in cell culture
Procedure: H9 cells, 10^5 cells per well on a 24 well plate, suspended in 2 ml RPMI-medium containing 10% fetal calf serum, 100 μg/ml penicillin, 10 μg/ml streptomycin sulfate and 2 μg/ml polybrene are exposed to HIV (HTLV-IIIB) and different concentrations of the inhibiting compounds. The plates are incubated at 37° C. in 5% CO2 for 6-7 days. The contents in each well is then homogenized with a pipette and transferred to a centrifuge tube. After centrifugation for 10 min at 1500 rpm the supernatent is removed and the cell pellet is analyzed by fixing in methanol on glass plates. Human HIV positive serum diluted 1:80 or 1:160 is added and incubated for 30 min at 37°. The plate is then washed with phosphate-buffered saline (PBS) containing Ca^2+ and Mg^2+. Sheep antihuman conjugate (FITC) is added and after a new incubation the plate is again washed with PBS. Contrast staining is done with Evans blue and after drying the frequency of HIV antigen containing cells is determined in a microscope.

[2] = monkeys, Tao et al., cited from earlier work; for absorption: oral; for Elimination half-lives: range given for both compounds together
[3] = biological target: Hepatitis B virus polymerase (Hepatitis B virus genotype D subtype ayw, UniProt P03156); assay: Inhibition of hepatitis B virus polymerase (reverse transcriptase) using a DNA template; type: biochemical; conditions: compounds used as 5'-triphosphates
Description: (§1) There is no cell culture assay which can be used to determine the efficiacy of compounds against hepatitis B virus. However, the hepatitis B virus encodes a reverse transcriptase, Summer and Mason, Cell 29 (1982) 403-415, obligatory for hepatitis b virus replication. This enzyme, which is also a consituent of the hepatitis B virus particles, can be used to evaluate the inhibitory activity against hepatitis B virus of nucleoside analogues provided that these compounds are used as their metabolic products, 5'-triphosphates. […] The hepatitis B virus reverse transcriptase can, as all reverse transcriptases, use both RNA and DNA templates, and included in Table 2 is also the inhibition of duck hepatitis B virus polymerase using both DNA and RNA templates.
(§2) The assays were performed as described in Tao et al. Hepatitis B virus was for a long time considered to be a DNA virus with a viral DNA polymerase being part of the virus particles. However, it was discovered that the hepatitis B virus DNA polymerase activity was due to a reverse transcriptase and that this virus should be regarded as a retrovirus which, in contrast to other retroviruses, uses its DNA phase as genetic material in the virus particles. Summers and Mason. Hepatitis B viruses are therefore not related to DNA viruses such as herpes-viruses or adeno-virus, but rather are related to retroviruses such as HIV.

[4] = biological target: Duck hepatitis virus polymerase (Duck hepatitis B virus, UniProt P03162); assay: Inhibition of duck hepatitis B virus polymerase (reverse transcriptase) using DNA and RNA templates; type: biochemical; conditions: compounds used as 5'-triphosphates
Description: as §1, §2

[5] = DNA template, read-out: IC50, duck hepatitis virus polymerase, DNA template
[6] = RNA template, read-out: IC50, duck hepatitis virus polymerase, RNA template

Hepatitis B virus polymerase, sequence (P03156 whole entry): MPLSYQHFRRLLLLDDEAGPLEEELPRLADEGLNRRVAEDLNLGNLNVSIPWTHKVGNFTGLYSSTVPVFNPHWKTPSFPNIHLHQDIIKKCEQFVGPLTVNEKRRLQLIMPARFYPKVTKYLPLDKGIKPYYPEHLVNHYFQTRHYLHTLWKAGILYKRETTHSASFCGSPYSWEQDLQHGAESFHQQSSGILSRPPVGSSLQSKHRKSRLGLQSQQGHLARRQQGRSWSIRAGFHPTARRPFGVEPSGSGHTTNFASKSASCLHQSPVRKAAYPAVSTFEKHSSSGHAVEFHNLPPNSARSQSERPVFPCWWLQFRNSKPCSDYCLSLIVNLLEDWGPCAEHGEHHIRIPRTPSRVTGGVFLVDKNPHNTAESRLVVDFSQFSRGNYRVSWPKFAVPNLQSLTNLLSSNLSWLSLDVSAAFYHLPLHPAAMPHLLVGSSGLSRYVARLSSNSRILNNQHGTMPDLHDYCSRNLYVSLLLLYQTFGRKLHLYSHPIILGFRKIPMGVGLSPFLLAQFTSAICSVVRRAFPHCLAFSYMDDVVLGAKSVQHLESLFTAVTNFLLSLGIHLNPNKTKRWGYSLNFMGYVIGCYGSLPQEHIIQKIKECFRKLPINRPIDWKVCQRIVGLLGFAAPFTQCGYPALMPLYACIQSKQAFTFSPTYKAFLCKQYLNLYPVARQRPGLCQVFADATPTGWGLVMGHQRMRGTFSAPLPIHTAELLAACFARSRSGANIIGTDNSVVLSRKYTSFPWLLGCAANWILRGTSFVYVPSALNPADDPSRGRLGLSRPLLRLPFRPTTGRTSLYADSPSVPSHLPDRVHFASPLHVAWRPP
Duck hepatitis virus polymerase, sequence (P03162 whole entry): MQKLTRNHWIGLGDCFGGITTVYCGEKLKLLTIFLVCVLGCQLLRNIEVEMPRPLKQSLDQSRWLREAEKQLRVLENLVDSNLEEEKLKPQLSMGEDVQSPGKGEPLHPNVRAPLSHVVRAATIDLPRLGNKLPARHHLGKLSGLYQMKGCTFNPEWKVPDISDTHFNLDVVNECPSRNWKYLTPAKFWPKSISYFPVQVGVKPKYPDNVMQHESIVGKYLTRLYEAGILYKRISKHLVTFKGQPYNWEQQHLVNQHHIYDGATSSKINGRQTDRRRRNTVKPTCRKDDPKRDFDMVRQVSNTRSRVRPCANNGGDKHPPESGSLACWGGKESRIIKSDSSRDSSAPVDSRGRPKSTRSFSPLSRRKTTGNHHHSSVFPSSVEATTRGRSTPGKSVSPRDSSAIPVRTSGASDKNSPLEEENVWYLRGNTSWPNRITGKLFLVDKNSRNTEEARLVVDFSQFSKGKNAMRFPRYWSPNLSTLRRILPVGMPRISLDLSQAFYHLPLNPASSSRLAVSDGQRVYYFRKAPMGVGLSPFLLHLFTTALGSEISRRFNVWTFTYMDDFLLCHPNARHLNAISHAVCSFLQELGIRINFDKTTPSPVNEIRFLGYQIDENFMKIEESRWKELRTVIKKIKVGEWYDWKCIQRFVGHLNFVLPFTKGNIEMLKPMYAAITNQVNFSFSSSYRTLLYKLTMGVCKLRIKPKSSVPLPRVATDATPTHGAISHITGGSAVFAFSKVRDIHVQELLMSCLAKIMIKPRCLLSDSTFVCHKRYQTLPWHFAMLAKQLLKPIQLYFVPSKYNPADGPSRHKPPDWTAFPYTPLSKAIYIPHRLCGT

Row | SMILES | IC50 [1] [nM] | absorption [2] | Elimination half-lives [2] [h] | IC50 [3] [nM] | IC50 [4, 5] [nM] | IC50 [4, 6] [nM]
1 | CC=Cc1cn([C@H]2C[C@H](O)[C@@H](CO)O2)c(=O)[nH]c1=O [5-(1-propenyl)-2'-deoxyuridine] | < 1000 | moderately well absorbed | 1.2 to 1.8 | 100 | 110 | 150
2 | CCc1cn([C@@H]2O[C@H](CO)[C@@H](O)[C@@H]2O)c(=O)[nH]c1=O [1-(β-D-arabinofuranosyl)-5-ethyluracil] | 2000 |  |  |  |  | 
3 | CCc1cn([C@H]2C[C@H](O)[C@@H](CO)O2)c(=O)[nH]c1=O [5-Ethyl-2'-deoxythymidine] |  |  |  | 250 | 900 | 740
4 | C=C(C)c1cn([C@H]2C[C@H](O)[C@@H](CO)O2)c(=O)[nH]c1=O [5-(1-isopropenyl)-2'-deoxyuridine] | 1000 to 10000 |  |  |  |  | 
5 | CCc1cn([C@H]2C[C@H](O)[C@@H](CO)O2)c(=O)[nH]c1=O [5-ethyl-2'-deoxyuridine] | 1000 |  |  |  |  | 
6 | C=C(C)c1cn([C@@H]2O[C@H](CO)[C@@H](O)[C@@H]2O)c(=O)[nH]c1=O [1-(β-D-arabinofuranosyl)-5-isopropenyluracil] | 2000 |  |  |  |  | 
7 | CC=Cc1cn([C@@H]2O[C@H](CO)[C@@H](O)[C@@H]2O)c(=O)[nH]c1=O [1-(β-D-arabinofuranosyl)-5-(1-propenyl)-uracil] | < 1000 | moderately well absorbed | 1.2 to 1.8 | 240 | 340 | 540
8 | O=c1[nH]c(=O)n([C@H]2C[C@H](O)[C@@H](CO)O2)cc1CO [5-hydroxymethyl-2'-deoxyuridine] | < 1000 |  |  | 250 | 500 | 240
9 | O=c1[nH]c(=O)n([C@H]2C[C@H](O)[C@@H](CO)O2)cc1C1CC1 [5-cyclopropyl-2'-deoxyuridine] | < 1000 |  |  |  |  | 
